Test results taken from US20250134109A1, “Antimicrobial, Antiviral and Antifungal Articles and Methods of Producing Such Articles” (Cupron, Inc., priority 2021, published 2025).

Test: Copper ion release from 1.0μ particles of various copper compounds over exposure cycles
Assay type: physicochemical
Text: In many embodiments, it is possible to provide ion release rates that are tailored to the specific application. For example, embodiments include articles that comprise first particles having a first ion release rate and second particles having a second ion release rate.
The ion release rates listed may be considered to be an average ion release rate of a plurality of particles or powder having an average particle size of 1 micron also. […]

Compound: O=S(=O)([O-])[O-].[Cu+2] [CuSO4, copper sulfate]
- number of exposures in which copper ions are released into a fluid (as shown in Table 1): less than five exposures
- Copper ion release from 1.0μ particles (exposure cycle 0): 100.0 ppm
- Copper ion release from 1.0μ particles (exposure cycle 5): 0.0 ppm
- Copper ion release from 1.0μ particles (exposure cycle 10): 0.0 ppm
- Copper ion release from 1.0μ particles (exposure cycle 15): 0.0 ppm
- Copper ion release from 1.0μ particles (exposure cycle 20): 0.0 ppm
- Copper ion release from 1.0μ particles (exposure cycle 25): 0.0 ppm
- Copper ion release from 1.0μ particles (exposure cycle 30): 0.0 ppm
- Copper ion release from 1.0μ particles (exposure cycle 35): 0.0 ppm
- Copper ion release from 1.0μ particles (exposure cycle 40): 0.0 ppm
- Copper ion release from 1.0μ particles (exposure cycle 45): 0.0 ppm
- Copper ion release from 1.0μ particles (exposure cycle 50): 0.0 ppm

Compound: [Cu+].[I-] [Cul, cuprous iodide]
- Copper ion release from 1.0μ particles (exposure cycle 0): 6.0 ppm
- Copper ion release from 1.0μ particles (exposure cycle 5): 3.0 ppm
- Copper ion release from 1.0μ particles (exposure cycle 10): 1.5 ppm
- Copper ion release from 1.0μ particles (exposure cycle 15): 0.7 ppm
- Copper ion release from 1.0μ particles (exposure cycle 20): 0.4 ppm
- Copper ion release from 1.0μ particles (exposure cycle 25): 0.2 ppm
- Copper ion release from 1.0μ particles (exposure cycle 30): 0.1 ppm
- Copper ion release from 1.0μ particles (exposure cycle 35): 0.0 ppm
- Copper ion release from 1.0μ particles (exposure cycle 40): 0.0 ppm
- Copper ion release from 1.0μ particles (exposure cycle 45): 0.0 ppm
- Copper ion release from 1.0μ particles (exposure cycle 50): 0.0 ppm

Compound: copper sulfide [Cu2S]
- Copper ion release from 1.0μ particles (exposure cycle 0): 0.5 ppm
- Copper ion release from 1.0μ particles (exposure cycle 5): 0.5 ppm
- Copper ion release from 1.0μ particles (exposure cycle 10): 0.5 ppm
- Copper ion release from 1.0μ particles (exposure cycle 15): 0.5 ppm
- Copper ion release from 1.0μ particles (exposure cycle 20): 0.5 ppm
- Copper ion release from 1.0μ particles (exposure cycle 25): 0.5 ppm
- Copper ion release from 1.0μ particles (exposure cycle 30): 0.5 ppm
- Copper ion release from 1.0μ particles (exposure cycle 35): 0.5 ppm
- Copper ion release from 1.0μ particles (exposure cycle 40): 0.5 ppm
- Copper ion release from 1.0μ particles (exposure cycle 45): 0.5 ppm
- Copper ion release from 1.0μ particles (exposure cycle 50): 0.5 ppm

Compound: cuprous thiocyanate [CuSCN]
- Copper ion release from 1.0μ particles (exposure cycle 0): 4.0 ppm
- Copper ion release from 1.0μ particles (exposure cycle 5): 2.7 ppm
- Copper ion release from 1.0μ particles (exposure cycle 10): 1.8 ppm
- Copper ion release from 1.0μ particles (exposure cycle 15): 1.3 ppm
- Copper ion release from 1.0μ particles (exposure cycle 20): 0.9 ppm
- Copper ion release from 1.0μ particles (exposure cycle 25): 0.6 ppm
- Copper ion release from 1.0μ particles (exposure cycle 30): 0.4 ppm
- Copper ion release from 1.0μ particles (exposure cycle 35): 0.3 ppm
- Copper ion release from 1.0μ particles (exposure cycle 40): 0.2 ppm
- Copper ion release from 1.0μ particles (exposure cycle 45): 0.1 ppm
- Copper ion release from 1.0μ particles (exposure cycle 50): 0.0 ppm
